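48-hour exposure; five concentrations; linearly interpolated endpoints. Abbreviation: GI50, concentration required for 50% inhibition of growth.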 The source made the active and inactive calls. No stated cut-off is given here; in the data, active = GI50 up to about 1.1 µM and inactive = higher.
Assays:
Test in all cases: DTP human tumour cell line panel, 48 h
786-0 = test system: 786-0
A498 = test system: A498
A549 = test system: A549
ACHN = test system: ACHN
BT-549 = test system: BT-549
CAKI-1 = test system: CAKI-1
CCRF-CEM = test system: CCRF-CEM
COLO 205 = test system: COLO 205
DU-145 = test system: DU-145
EKVX = test system: EKVX
HCC 2998 = test system: HCC 2998
HCT-116 = test system: HCT-116
HCT-15 = test system: HCT-15
HL-60 = test system: HL-60
HOP-62 = test system: HOP-62
HOP-92 = test system: HOP-92
Hs-578T = test system: Hs-578T
IGROV-1 = test system: IGROV-1
K562 = test system: K562
KM12 = test system: KM12
LOX IMVI = test system: LOX IMVI
M14 = test system: M14
MCF7 = test system: MCF7
MDA-MB-231 = test system: MDA-MB-231
MDA-MB-435 = test system: MDA-MB-435
MDA-N = test system: MDA-N
MOLT-4 = test system: MOLT-4
Malme-3M = test system: Malme-3M
NCI-H226 = test system: NCI-H226
NCI-H23 = test system: NCI-H23
NCI-H460 = test system: NCI-H460
NCI-H522 = test system: NCI-H522
NCI/ADR-RES = test system: NCI/ADR-RES
OVCAR-3 = test system: OVCAR-3
OVCAR-4 = test system: OVCAR-4
OVCAR-5 = test system: OVCAR-5
OVCAR-8 = test system: OVCAR-8
PC-3 = test system: PC-3
RPMI-8226 = test system: RPMI-8226
RXF 393 = test system: RXF 393
SF-268 = test system: SF-268
SF-295 = test system: SF-295
SK-MEL-28 = test system: SK-MEL-28
SK-MEL-2 = test system: SK-MEL-2
SK-OV-3 = test system: SK-OV-3
SN12C = test system: SN12C
SNB-19 = test system: SNB-19
SNB-75 = test system: SNB-75
SR = test system: SR
SW-620 = test system: SW-620
T47D = test system: T47D
TK-10 = test system: TK-10
U-251 = test system: U-251
UACC-257 = test system: UACC-257
UACC-62 = test system: UACC-62
UO-31 = test system: UO-31
HT-29 = test system: HT-29
SK-MEL-5 = test system: SK-MEL-5
SF-539 = test system: SF-539

Measured: GI50

C1=Cc2nccc3cc4c(c(c23)N1)OCO4
13.9 µM: HCT-15
inactive: 786-0 4.03 µM | A498 21.6 µM | A549 5.3 µM | ACHN 4.52 µM | BT-549 20.3 µM | CAKI-1 8.99 µM | CCRF-CEM 7.69 µM | COLO 205 3.55 µM | DU-145 6.15 µM | EKVX 9.55 µM | HCC 2998 8.95 µM | HCT-116 3.08 µM | HL-60 > 100 µM | HOP-62 7.62 µM | HOP-92 22.3 µM | Hs-578T 3.58 µM | IGROV-1 2.56 µM | K562 3.17 µM | KM12 6.73 µM | LOX IMVI 8.61 µM | M14 18.4 µM | MCF7 2.32 µM | MDA-MB-231 10.3 µM | MDA-MB-435 12.7 µM | MDA-N 8.02 µM | MOLT-4 1.39 µM | Malme-3M 9.23 µM | NCI-H226 11.4 µM | NCI-H23 6.92 µM | NCI-H460 4.36 µM | NCI-H522 2.42 µM | NCI/ADR-RES 12.2 µM | OVCAR-3 10.9 µM | OVCAR-4 7.45 µM | OVCAR-5 10.4 µM | OVCAR-8 3.93 µM | PC-3 11.6 µM | RPMI-8226 4.53 µM | RXF 393 1.64 µM | SF-268 8.13 µM | SF-295 3.36 µM | SK-MEL-28 24 µM | SK-MEL-2 13.3 µM | SK-OV-3 5.92 µM | SN12C 4.89 µM | SNB-19 7.08 µM | SNB-75 6.93 µM | SR 1.28 µM | SW-620 5.68 µM | T47D 6.4 µM | TK-10 14.7 µM | U-251 13.5 µM | UACC-257 17.5 µM | UACC-62 14.1 µM | UO-31 6.44 µM

CC(=O)Nc1c(C)cc(OCC(=O)O)cc1C
inactive: 786-0 > 100 µM | A498 > 100 µM | A549 > 100 µM | ACHN > 100 µM | BT-549 > 100 µM | CAKI-1 > 100 µM | CCRF-CEM > 100 µM | COLO 205 > 100 µM | DU-145 > 100 µM | EKVX > 100 µM | HCC 2998 > 100 µM | HCT-116 > 100 µM | HL-60 > 100 µM | HOP-62 > 100 µM | HOP-92 > 100 µM | HT-29 > 100 µM | Hs-578T > 100 µM | IGROV-1 > 100 µM | K562 > 100 µM | KM12 > 100 µM | LOX IMVI > 100 µM | M14 > 100 µM | MCF7 > 100 µM | MDA-MB-231 > 100 µM | MDA-MB-435 > 100 µM | MDA-N > 100 µM | Malme-3M > 100 µM | NCI-H226 > 100 µM | NCI-H23 > 100 µM | NCI-H460 > 100 µM | NCI-H522 > 100 µM | NCI/ADR-RES > 100 µM | OVCAR-3 > 100 µM | OVCAR-4 > 100 µM | OVCAR-5 > 100 µM | OVCAR-8 > 100 µM | PC-3 > 100 µM | RPMI-8226 > 100 µM | RXF 393 > 100 µM | SF-268 > 100 µM | SF-295 > 100 µM | SK-MEL-28 > 100 µM | SK-MEL-2 > 100 µM | SK-MEL-5 > 100 µM | SK-OV-3 > 100 µM | SN12C > 100 µM | SNB-19 > 100 µM | SNB-75 > 100 µM | SR > 100 µM | SW-620 > 100 µM | T47D > 100 µM | TK-10 > 100 µM | U-251 > 100 µM | UACC-257 > 100 µM | UACC-62 > 100 µM | UO-31 > 100 µM
> 100 µM: HCT-15

CCCCCCCCCCCC1NC(N)=NC(CCCO)=C1C(=O)OC (stereo not drawn)
8.22 µM: HCT-15
active: PC-3 1.1 µM
inactive: 786-0 1.83 µM | A498 14.6 µM | A549 5.92 µM | ACHN 4.22 µM | BT-549 4.67 µM | CAKI-1 7.06 µM | CCRF-CEM 1.59 µM | COLO 205 1.88 µM | DU-145 9.35 µM | EKVX 16.1 µM | HCC 2998 2.35 µM | HCT-116 1.92 µM | HL-60 1.42 µM | HOP-62 2.82 µM | HOP-92 3.54 µM | HT-29 1.73 µM | Hs-578T 1.92 µM | IGROV-1 1.84 µM | K562 1.71 µM | KM12 1.61 µM | LOX IMVI 1.66 µM | M14 1.93 µM | MCF7 1.79 µM | MDA-MB-231 2.08 µM | MDA-MB-435 1.88 µM | MDA-N 2.44 µM | MOLT-4 1.86 µM | Malme-3M 5.12 µM | NCI-H226 6.3 µM | NCI-H23 2.08 µM | NCI-H460 1.94 µM | NCI-H522 1.77 µM | NCI/ADR-RES 17.7 µM | OVCAR-3 2.37 µM | OVCAR-4 2.97 µM | OVCAR-5 6.62 µM | OVCAR-8 2.3 µM | RPMI-8226 2.32 µM | SF-268 2.48 µM | SF-295 2.93 µM | SF-539 2.96 µM | SK-MEL-2 1.63 µM | SK-MEL-5 2.24 µM | SK-OV-3 2.33 µM | SN12C 2.47 µM | SNB-19 1.83 µM | SNB-75 2.79 µM | SR 3.33 µM | SW-620 1.61 µM | T47D 5.09 µM | TK-10 2.23 µM | U-251 1.67 µM | UACC-257 3.16 µM | UACC-62 4.38 µM | UO-31 15.3 µM

CC(=O)O[C@@H]1C[C@@]2(C)[C@@H]3CC=C4[C@@H](C[C@H](O)C(=O)C4(C)C)[C@]3(C)C(=O)C[C@]2(C)[C@H]1[C@@](C)(O)C(=O)/C=C/C(C)(C)OC(C)=O
inactive: CCRF-CEM 1.61 µM | COLO 205 1.5 µM | DU-145 2.03 µM | EKVX 2.72 µM | HCT-116 1.63 µM | Hs-578T 4.71 µM | K562 1.51 µM | KM12 4.84 µM | LOX IMVI 2.74 µM | MCF7 3.57 µM | MDA-MB-231 2.78 µM | MDA-N 1.37 µM | MOLT-4 3.33 µM | NCI-H23 5.26 µM | NCI/ADR-RES 3.64 µM | OVCAR-3 4.81 µM | OVCAR-5 12.8 µM | OVCAR-8 1.47 µM | PC-3 1.59 µM | RPMI-8226 2.02 µM | SF-295 1.2 µM | SF-539 1.25 µM | SK-MEL-2 1.26 µM | SK-MEL-5 1.99 µM | SNB-19 3.21 µM | SNB-75 1.85 µM | SR 3.33 µM | T47D 10.1 µM | UACC-62 2.63 µM
active: 786-0 0.352 µM | A498 0.0151 µM | A549 0.881 µM | ACHN 0.16 µM | BT-549 0.336 µM | CAKI-1 0.211 µM | HCC 2998 0.035 µM | HL-60 0.746 µM | HOP-62 0.731 µM | HOP-92 0.912 µM | HT-29 1.08 µM | IGROV-1 0.368 µM | M14 0.592 µM | MDA-MB-435 1.01 µM | NCI-H226 0.338 µM | NCI-H460 0.428 µM | NCI-H522 0.541 µM | OVCAR-4 0.789 µM | SF-268 1.01 µM | SK-MEL-28 0.365 µM | SK-OV-3 < 0.0251 µM | SN12C 0.957 µM | SW-620 0.516 µM | TK-10 0.0787 µM | U-251 0.617 µM | UACC-257 0.594 µM | UO-31 0.298 µM
0.875 µM: HCT-15

CN1C(=O)c2ccccc2OC12C=Cc1ccc(O)cc1O2 (stereo not drawn)
29.6 µM: HCT-15
active: SR < 0.01 µM
inactive: 786-0 31.6 µM | A498 18.4 µM | A549 30.8 µM | ACHN 23 µM | BT-549 30.8 µM | CAKI-1 16.1 µM | CCRF-CEM 19.3 µM | COLO 205 22.2 µM | DU-145 22.6 µM | EKVX 18.6 µM | HCC 2998 18.9 µM | HCT-116 25.8 µM | HL-60 17.8 µM | HOP-62 13.3 µM | HOP-92 27.2 µM | HT-29 22.3 µM | Hs-578T 19.3 µM | IGROV-1 28.2 µM | K562 24.1 µM | KM12 25.2 µM | LOX IMVI 9.62 µM | M14 12.7 µM | MCF7 32.4 µM | MDA-MB-231 18.5 µM | MDA-MB-435 16.4 µM | MDA-N 31 µM | MOLT-4 16.7 µM | NCI-H226 23.2 µM | NCI-H23 28.2 µM | NCI-H460 20 µM | NCI-H522 20.4 µM | NCI/ADR-RES 13.5 µM | OVCAR-3 17.1 µM | OVCAR-4 28.1 µM | OVCAR-5 20.7 µM | OVCAR-8 12.7 µM | PC-3 21.3 µM | RPMI-8226 30.3 µM | SF-268 26.9 µM | SF-295 29.9 µM | SK-MEL-28 21.3 µM | SK-MEL-2 20.6 µM | SK-MEL-5 17.3 µM | SK-OV-3 19.5 µM | SN12C 26.7 µM | SNB-19 20.4 µM | SNB-75 22.8 µM | SW-620 26.6 µM | T47D 13.8 µM | TK-10 26.8 µM | U-251 24.8 µM | UACC-257 15.6 µM | UACC-62 28.8 µM | UO-31 18.7 µM
